This note sets out measurements from ChEMBL document CHEMBL1138591, “Hair growth stimulator property of thienyl substituted pyrazole carboxamide derivatives as a CB1 receptor antagonist with in vivo antiobesity effect” (Bioorg Med Chem Lett, 2009).

For one data set, the system named is Rattus norvegicus. As to the kind of experiment: Antiobesity activity in Zucker fa/fa rat assessed as inhibition of 5% sucrose solution intake at 10 mg/kg administered as single dose up to 4 hrs relative to control. The data set is classed as functional.
In the next data set the target is Cannabinoid receptor 1 (Homo sapiens, UniProt P21554). As to the kind of experiment: Antagonist activity at human cannabinoid CB1 receptor expressed in CHOK1 cells assessed as cAMP activity. The data set is classed as functional, cell-based, CHO-K1.
A further data set concerns the target Cannabinoid receptor 2 (Homo sapiens, UniProt P34972). As to the kind of experiment: Antagonist activity at human cannabinoid CB2 receptor expressed in CHOK1 cells assessed as cAMP activity. The data set is classed as functional, cell-based, CHO-K1.
A short description of data set [1]: Cmax in fasted Zucker fa/fa rat at 30 mg/kg, po. It is filed as ADME, organism-based. Also noted: dose 30 mg/kg, route oral. To be noted: in vivo.
The species named for data set [2] is Mus musculus. As to conditions: Swiss albino, 10 mg/kg.
Description: Inhibition of WIN-55212-2-induced hypothermia in Swiss albino mouse assessed as change in body temperature at 10 mg/kg po
For data set [3], the system named is Mus musculus. As to the kind of experiment: Inhibition of WIN-55212-2-induced catalepsy in Swiss albino mouse assessed as immobility on ring at 1 mg/kg po up to 300 seconds by ring test. It is filed as functional. Details: scale not given: the % may be the effect or the level left.
The test system of data set [4] is Mus musculus. Kind of data set: Inhibition of WIN-55212-2-induced catalepsy in Swiss albino mouse assessed as immobility on ring at 3 mg/kg po up to 300 seconds by ring test. The data set is classed as functional. Details: scale not given: the % may be the effect or the level left.
Data set [5] is filed under the species Mus musculus. As to conditions: Swiss albino, 5 mg/kg.
Description: Inhibition of WIN-55212-2-induced hypothermia in Swiss albino mouse assessed as change in body temperature at 5 mg/kg po
Data set [6] relates to Mus musculus. Kind of data set: Hair growth stimulatory activity in high fat diet-induced C57BL/6J mouse at 10 mg/kg, po administered once daily for 28 days measured after 28 days. Also noted: dose 10 mg/kg. It is filed as functional, organism-based.
For data set [7], the system named is Mus musculus. As to the kind of experiment: Effect on WIN-55212-2-induced locomotor activity in Swiss albino mouse assessed as number of square crossed at 3 mg/kg po up to 300 seconds (RbV=20.67 +/- 3.38 squares). It is filed as functional.
For data set [8], the system named is Mus musculus. Kind of data set: Antiobesity activity in high fat diet-induced obese C57BL/6J mouse model assessed as reduction in food intake at 10 mg/kg, po administered once daily for 28 days. Details: dose 10 mg/kg. It is filed as functional, organism-based.
The test system of data set [9] is Mus musculus. As to the kind of experiment: Inhibition of WIN-55212-2-induced analgesia in Swiss albino mouse assessed as maximal possible effect at 1 mg/kg po by hot plate method. It is filed as functional. Also noted: scale not given: the % may be the effect or the level left. A general note: Thermal pain tests record how soon the animal reacts.
A short description of data set [10]: Drug level in fasted Zucker fa/fa rat brain at 30 mg/kg, po after 3 hrs. It is filed as ADME, organism-based. Also noted: dose 30 mg/kg, route oral. As to conditions: read-out: Drug uptake.
Data set [11] relates to Mus musculus. Kind of data set: Antiobesity activity in high fat diet-induced obese C57BL/6J mouse model assessed as reduction in body weight gain at 10 mg/kg, po administered once daily for 28 days. Also noted: dose 10 mg/kg. It is filed as functional, organism-based.
The test system of data set [12] is Mus musculus. Kind of data set: Hair growth stimulatory activity in high fat diet-induced C57BL/6J mouse at 10 mg/kg administered tropically for 28 days measured after 28 days. Also noted: dose 10 mg/kg. The data set is classed as functional, organism-based.
Data set [13] is described as follows: Drug level in fasted Zucker fa/fa rat brain assessed per gram of brain at 30 mg/kg, po after 3 hrs. It is filed as ADME, organism-based. To be noted: read-out: Drug uptake. Also noted: dose 30 mg/kg, route oral.
Data set [14] relates to Mus musculus. As to the kind of experiment: Effect on WIN-55212-2-induced locomotor activity in Swiss albino mouse assessed as number of square crossed at 5 mg/kg po up to 300 seconds (RbV=20.67 +/- 3.38 squares). It is filed as functional.
In data set [15] the test system is Mus musculus. As to the kind of experiment: Inhibition of WIN-55212-2-induced catalepsy in Swiss albino mouse assessed as immobility on ring at 5 mg/kg po up to 300 seconds by ring test. The data set is classed as functional. Also noted: scale not given: the % may be the effect or the level left.
The nature of data set [16]: Plasma concentration in fasted Zucker fa/fa rat at 30 mg/kg, po after 3 hrs. The data set is classed as ADME, organism-based. Also noted: dose 30 mg/kg, route oral.
Data set [17] in a line: Half life in fasted Zucker fa/fa rat at 30 mg/kg, po. The data set is classed as ADME, organism-based. Also noted: dose 30 mg/kg, route oral. To be noted: in vivo.
Data set [18] deals with Mus musculus. As to the kind of experiment: Inhibition of WIN-55212-2-induced analgesia in Swiss albino mouse assessed as maximal possible effect at 3 mg/kg po by hot plate method. Also noted: scale not given: the % may be the effect or the level left. The data set is classed as functional.
The test system of data set [19] is Mus musculus. Kind of data set: Effect on WIN-55212-2-induced locomotor activity in Swiss albino mouse assessed as number of square crossed at 1 mg/kg po up to 300 seconds (RbV=20.67 +/- 3.38 squares). It is filed as functional.
The subject of data set [20] is Mus musculus. As to the kind of experiment: Inhibition of WIN-55212-2-induced analgesia in Swiss albino mouse assessed as maximal possible effect at 10 mg/kg po by hot plate method. It is filed as functional. Details: scale not given: the % may be the effect or the level left.
The subject of data set [21] is Mus musculus. As to the kind of experiment: Effect on WIN-55212-2-induced locomotor activity in Swiss albino mouse assessed as number of square crossed at 10 mg/kg po up to 300 seconds (RbV=20.67 +/- 3.38 squares). It is filed as functional.
The nature of data set [22]: Tmax in fasted Zucker fa/fa rat at 30 mg/kg, po. The data set is classed as ADME, organism-based. Also noted: dose 30 mg/kg, route oral. As to conditions: in vivo.
Data set [23] relates to Mus musculus. As to the kind of experiment: Hair growth stimulatory activity in high fat diet-induced C57BL/6J mouse assessed as bald area at 10 mg/kg, po administered once daily for 28 days measured after 28 days (Rvb=0.346 +/- 0.079 cm'2). It is filed as functional.
In data set [24] the test system is Mus musculus. As to the kind of experiment: Inhibition of WIN-55212-2-induced analgesia in Swiss albino mouse assessed as maximal possible effect at 5 mg/kg po by hot plate method. It is filed as functional. Details: scale not given: the % may be the effect or the level left.
Data set [25] in a line: AUC (0 to infinity) in fasted Zucker fa/fa rat at 30 mg/kg, po. The data set is classed as ADME, organism-based. Also noted: time infinity, dose 30 mg/kg, route oral. As to conditions: plasma.
The species entered for data set [26] is Mus musculus. To be noted: Swiss albino, 3 mg/kg.
Description: Inhibition of WIN-55212-2-induced hypothermia in Swiss albino mouse assessed as change in body temperature at 3 mg/kg po
Data set [27] in a line: Drug level in fasted Zucker fa/fa rat white adipose tissue assessed per gram of tissue at 30 mg/kg, po after 3 hrs. The data set is classed as ADME, organism-based. Also noted: dose 30 mg/kg, route oral. As to conditions: read-out: Drug uptake.
The subject of data set [28] is Mus musculus. As to the kind of experiment: Inhibition of WIN-55212-2-induced catalepsy in Swiss albino mouse assessed as immobility on ring at 10 mg/kg po up to 300 seconds by ring test. It is filed as functional. Details: scale not given: the % may be the effect or the level left.
Data set [29] is filed under the species Mus musculus. As to conditions: Swiss albino, 1 mg/kg.
Description: Inhibition of WIN-55212-2-induced hypothermia in Swiss albino mouse assessed as change in body temperature at 1 mg/kg po
A short description of data set [30]: Drug level in fasted Zucker fa/fa rat white adipose tissue at 30 mg/kg, po after 3 hrs. The data set is classed as ADME, organism-based. Details: dose 30 mg/kg, route oral. To be noted: read-out: Drug uptake.

Active and inactive are the calls of the source. The rule behind the calls is not given here.

Cannabinoid receptor 1, sequence (P21554 whole entry): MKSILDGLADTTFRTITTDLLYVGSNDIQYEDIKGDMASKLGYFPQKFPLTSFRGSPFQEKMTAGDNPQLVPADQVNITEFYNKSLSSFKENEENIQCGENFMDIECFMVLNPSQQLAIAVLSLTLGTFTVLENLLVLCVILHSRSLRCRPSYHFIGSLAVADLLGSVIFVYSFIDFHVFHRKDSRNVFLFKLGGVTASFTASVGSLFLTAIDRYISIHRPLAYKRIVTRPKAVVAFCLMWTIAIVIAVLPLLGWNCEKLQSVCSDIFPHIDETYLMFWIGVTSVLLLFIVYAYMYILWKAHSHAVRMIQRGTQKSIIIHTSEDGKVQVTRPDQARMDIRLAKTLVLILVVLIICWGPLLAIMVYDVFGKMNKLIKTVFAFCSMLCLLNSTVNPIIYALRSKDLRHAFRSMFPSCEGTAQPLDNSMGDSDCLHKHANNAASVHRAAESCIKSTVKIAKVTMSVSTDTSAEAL
Cannabinoid receptor 2, sequence (P34972 whole entry): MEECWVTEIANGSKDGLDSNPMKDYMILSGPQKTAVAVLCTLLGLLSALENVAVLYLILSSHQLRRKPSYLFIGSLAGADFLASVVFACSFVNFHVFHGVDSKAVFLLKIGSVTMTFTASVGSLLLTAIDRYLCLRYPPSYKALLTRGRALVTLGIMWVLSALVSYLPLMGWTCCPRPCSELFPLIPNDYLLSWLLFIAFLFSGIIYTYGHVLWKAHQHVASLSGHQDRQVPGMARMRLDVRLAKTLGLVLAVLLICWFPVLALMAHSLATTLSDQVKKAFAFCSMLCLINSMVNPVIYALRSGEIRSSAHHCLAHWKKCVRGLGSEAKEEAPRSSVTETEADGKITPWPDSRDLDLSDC

As a reminder, the inhibition in vivo is the change of the read-out against control, counted positive when it falls. The EC50 is the concentration needed to bring the measured effect to its halfway point. Take `Cc1c(C(=O)NN2CCCC2)nn(-c2ccc(Cl)cc2Cl)c1-c1ccc(Cl)s1`: the inhibition in vivo at 10 mg/kg with Rattus norvegicus was determined as 34.3%. For the same compound, the EC50 on Cannabinoid receptor 1 was 1000 nM; on Cannabinoid receptor 2, 20.9 µM.

In the case of `Cc1c(C(=O)NN2CC3CCCC3C2)nn(-c2ccc(Cl)cc2Cl)c1-c1ccc(Cl)s1` (stereo unspecified), the inhibition in vivo at 10 mg/kg in the data set on Rattus norvegicus was 26.3%. Besides, the 50% effective concentration (EC50) at Cannabinoid receptor 1 was 800 nM; at Cannabinoid receptor 2 it was 15.7 µM.

One may read the Cmax as the maximum level reached in the sampled fluid or tissue. As a reminder, the half-life is the time in which the quantity being followed falls by half. As a reminder, the Tmax is the time from dosing to the highest level. For orientation: AUC(0-inf) means total exposure, with the tail of the curve extrapolated. The compound `Cc1c(C(=O)NN2CCCCC2)nn(-c2ccc(Cl)cc2Cl)c1-c1ccc(Cl)s1` gave a Cmax in [1] of 520 ng/mL. In the data set on Rattus norvegicus, the inhibition in vivo at 10 mg/kg is 48%. The deltaT stood at 0.23 °C in the data set filed under Mus musculus [2], 0.23 °C in the data set filed under Mus musculus [5], 1.92 °C in the data set listed under Mus musculus [26] and 2.56 °C in the data set filed under Mus musculus [29]. Also, the Activity in the data set with Mus musculus [3] is 80.73%; in the data set on Mus musculus [4], 73.13%; with Mus musculus [7], 109.2; with Mus musculus [9] it was 34.84%; in the data set on Mus musculus [14], 126.5; in the data set on Mus musculus [15] it was 58.13%. The Activity in the data set with Mus musculus [18] was determined as 12.28%; in the data set on Mus musculus [19] it was 69.8; in the data set with Mus musculus [20], 4.35%; in the data set with Mus musculus [21], 171.4; with Mus musculus [23], 0.011 cm2; with Mus musculus [24] it was 4.12%. Also, the Activity with Mus musculus [28] was determined as 41.8%. Also, the result with Mus musculus [6], in the data set with Mus musculus [8] and in the data set on Mus musculus [11] was Active. The concentration at 3 h in data set [10] was determined as 210 ng/mL; in data set [13] it was 640 ng/g; in [16] it was 850 ng/mL; in data set [27], 2970 ng/g; in [30], 980 ng/mL. In the data set with Mus musculus [12], the outcome was inactive. The same compound gave a half-life in [17] of 1250 min. Besides, the concentration for a half-maximal effect (EC50) is 580 nM at Cannabinoid receptor 1 and 23.7 µM on Cannabinoid receptor 2. Further, in data set [22], the Tmax came out at 1.4 h. In [25], this compound registered a total exposure AUC(0-inf) of 12400 ng·h/mL.

Take `Cc1c(C(=O)NN2CCCCC2)nn(-c2ccc(Cl)cc2Cl)c1-c1cccs1`: in the data set on Rattus norvegicus, the inhibition in vivo at 10 mg/kg was 12.4%. Further, the values for the half-maximal effective concentration (EC50) at Cannabinoid receptor 1 and on Cannabinoid receptor 2 were 1330 nM and 7.55 µM, respectively.

Regarding `Cc1c(C(=O)NN2CCCCCC2)nn(-c2ccc(Cl)cc2Cl)c1-c1ccc(Cl)s1`, in the data set with Rattus norvegicus, the inhibition in vivo at 10 mg/kg is 20.1%. Further, the half-maximal effective concentration (EC50) amounted to 1100 nM at Cannabinoid receptor 1 and 12.8 µM on Cannabinoid receptor 2.

For the compound `Cc1c(C(=O)NN2CCCCC2)nn(-c2ccc(Cl)cc2Cl)c1-c1ccc(Br)s1`, the inhibition in vivo at 10 mg/kg in the data set on Rattus norvegicus worked out at 37.8%. In addition, the half-maximal effective concentration (EC50) on Cannabinoid receptor 1 is 400 nM; on Cannabinoid receptor 2, 23.2 µM.

For `Cc1c(C(=O)NN2CCOCC2)nn(-c2ccc(Cl)cc2Cl)c1-c1ccc(Cl)s1`, in the data set on Rattus norvegicus, the inhibition in vivo at 10 mg/kg was found to be 31.5%. The concentration for a half-maximal effect (EC50) is 690 nM on Cannabinoid receptor 1 and 7.43 µM on Cannabinoid receptor 2.

On to `CCc1c(C(=O)NN2CCCCC2)nn(-c2ccc(Cl)cc2Cl)c1-c1ccc(Cl)s1`, for which the inhibition in vivo at 10 mg/kg in the data set with Rattus norvegicus is 31.3%. Further, the EC50 at Cannabinoid receptor 1 is 540 nM; on Cannabinoid receptor 2, 25.9 µM.

In the case of `Cc1c(C(=O)NN2CCCCC2)nn(-c2ccc(Cl)cc2Cl)c1-c1ccc(Cl)cc1` [RIMONABANT], the inhibition in vivo at 10 mg/kg in the data set on Rattus norvegicus is 40.1%. Besides, the concentration at 3 h in data set [10] stood at 150 ng/mL; in data set [16], 400 ng/mL; in data set [30], 1400 ng/mL. Also, the result with Mus musculus [12] was inactive. For the same compound, the Activity with Mus musculus [23] amounted to 0.156 cm2.

Turning to `CCc1c(C(=O)NN2CCCCC2)nn(-c2ccc(Cl)cc2Cl)c1-c1ccc(Br)s1`, the inhibition in vivo at 10 mg/kg in the data set with Rattus norvegicus amounted to 39.2%. Moreover, the EC50 was 510 nM at Cannabinoid receptor 1 and 19.5 µM at Cannabinoid receptor 2.

Regarding `Cc1c(C(=O)NN2CCCCC2)nn(-c2ccc(Cl)cc2Cl)c1-c1ccc(I)s1`, the inhibition in vivo at 10 mg/kg with Rattus norvegicus was 42.1%. The EC50 on Cannabinoid receptor 1 turned out to be 320 nM; at Cannabinoid receptor 2, 29.4 µM.
